Entries after “also recorded” stand apart in the source; their conditions may differ. Read-outs that look alike come from different tables or passages of the source.
What was measured:
human mGlu5 [1] = target: T1, human mGlu5 (Homo sapiens, UniProt P41594); experiment: Calcium mobilization assay in human mGlu5-HEK293A cells (NAM, EC80 glutamate); type: cell-based; conditions: for %Glumin: efficacy of the NAM to reduce an EC80 response of glutamate
T1 construct: expressed in transfected cells

[2] = Intrinsic clearance in rat liver microsomes; type: in vitro ADME; conditions: predicted hepatic clearance from in vitro rat microsomal data
Method: Intrinsic Clearance in Rat and Human Liver Microsomes
The in vitro intrinsic clearance (CL int) was investigated in commercially obtained hepatic microsomes from rat and human donors using the substrate depletion (i.e., loss-of-parent vs. time, or t 1/2 method) approach with analyte detection via liquid chromatography-tandem mass spectrometry (LC-MS/MS). For each species, mean %parent remaining values at each time point were calculated from replicates raw data (analyte:IS peak area ratios) and used to determine in vitro t 1/2 and CLint.
Experiments were carried out using a robot-assisted (TECAN model Evo 200). Compound was incubated (1 µM final concentration) in buffer (100 mM potassium phosphate pH 7.4 with 3 mM MgCl2) containing hepatic microsomes (0.5 mg/mL final concentration) from multiple species, discretely, at 37 °C under constant orbital shaking. After 5 minutes (pre-incubation), reactions were initiated by addition of nicotinamide adenine dinucleotide phosphate (NADPH, 1 mM final concentration). At selected time intervals (0, 3, 7, 15, 25, and 45 minutes) post-addition of NADPH, aliquots (50 µL) were taken and placed into a 96-shallow-well plate containing ice cold acetonitrile (150 µL) with carbamazepine (IS, 50 nM). The plates were then centrifuged (3000 rcf at 4 °C) for 10 minutes. The supernatants were transferred to a new 96-shallow-well daughter plate and diluted (1:1 v/v) with water (Milli-Q filtered). The plates were then sealed in preparation for LC-MS/MS analysis (see below).
Raw LC-MS/MS peak area data generated from the assay samples were used to construct natural log-transformed %parent remaining vs. time plots (using t = 0 minute post-NADPH addition sample data as starting point set to 100%). In vitro compound half-life (t 1/2) values were obtained using the following […]
k is the slope from linear regression analysis of the natural log-transformed data (using means from Where all replicates at each time point). Resulting t 1/2 values were then used to calculate hepatic CLint values according to the following equation and with the use of species-specific scale-up factors for liver weight (grams) per total body weight (kg):
CL = 0.693 x 1 mL incubation x 45 mg microsomes x a gram liver
int in vitro t1/2 0.5 mg microsomes 1 gram liver kg body wt aScale-up factors used are 45 (rat) and 20 (human).1
Predicted hepatic clearance (CLhep) was calculated using the following equation: […]
Qh represents hepatic blood flow (mL/min/kg): 21 for human, 70 for rat, and 90 for mouse.

[3] = Binding in plasma from human (equilibrium dialysis); type: in vitro ADME; conditions: fraction unbound
Method: Binding in plasma from rat and human.
Determination of compounds’ fraction unbound (f u) in plasma from rat and human was conducted in vitro via equilibrium dialysis using HTDialysis membrane plates. Dialysis membranes (four paired strips per HTD assay) were hydrated as described by the manufacturer and inserted into the HTD plate, which was assembled and prepared for sample addition by the dispensing of blank buffer (DPBS, 100 µL/well) into the ‘top half’ of each membrane-split well. Each compound was diluted into plasma from each species (5 µM final concentration), which was aliquoted in triplicate to the ‘bottom half’ of the prepared HTD plate wells. The HTD plate was sealed and incubated for 6 hours at 37 °C. Following incubation, each well (both top and bottom halves) were transferred (20 µL) to the corresponding wells of a 96-shallow-well (V-bottom) plate. The daughter plates were then matrix-matched (buffer side wells received equal volume of plasma, and plasma side wells received equal volume of buffer), and extraction solution (120 µL; acetonitrile containing 50 nM carbamazepine as IS) was added to all wells of both daughter plates to precipitate protein and extract test article. The plates were then sealed and centrifuged (3500 rcf) for 10 minutes at ambient temperature. Supernatant (60 µL) from each well of the daughter plates was then transferred to the corresponding wells of new daughter plates (96-shallow-well, V bottom) containing water (Milli-Q, 60 µL/well), and the plates were sealed in preparation for LC-MS/MS analysis (see below). fu was calculated as (analyte to IS MS peak area ratio from Trans-buffer side) / (analyte to IS MS peak area ratio from Cis-plasma side). Mean values for each species were calculated from 3 replicates. […]
Mean values for each species were calculated from 3 replicates.

[4] = parameters: method as in PMID 31589885; conditions: led to termination of trials; attributed to off-target MAO-B; cited from earlier work
[5] = literature, cited from earlier work
[6] = rat, cited from earlier work
[7] = parameters: method as in PMID 28530802; conditions: NHP, 28-day study, AO metabolite accumulated after 14 days, nonmechanism based; cited from earlier work
human mGlu5 [8] = target: T1, human mGlu5; conditions: previously published picolinamide series; read-out: hmGlu5 IC50; cited from earlier work
[9] = parameters: method as in PMID 30446311; conditions: cited from earlier work
[10] = cited from earlier work
M1 = test system: M1; parameters: method as in PMID 37101980; conditions: cited from earlier work
[11] = human mGlu5-HEK293A cells, EC80 fixed concentration of glutamate, n = 2 in triplicate
[12] = human mGlu5-HEK293A cells, EC80 fixed concentration of glutamate, n = 2 in triplicate, read-out: IC50

T1 sequence (P41594 21-1212): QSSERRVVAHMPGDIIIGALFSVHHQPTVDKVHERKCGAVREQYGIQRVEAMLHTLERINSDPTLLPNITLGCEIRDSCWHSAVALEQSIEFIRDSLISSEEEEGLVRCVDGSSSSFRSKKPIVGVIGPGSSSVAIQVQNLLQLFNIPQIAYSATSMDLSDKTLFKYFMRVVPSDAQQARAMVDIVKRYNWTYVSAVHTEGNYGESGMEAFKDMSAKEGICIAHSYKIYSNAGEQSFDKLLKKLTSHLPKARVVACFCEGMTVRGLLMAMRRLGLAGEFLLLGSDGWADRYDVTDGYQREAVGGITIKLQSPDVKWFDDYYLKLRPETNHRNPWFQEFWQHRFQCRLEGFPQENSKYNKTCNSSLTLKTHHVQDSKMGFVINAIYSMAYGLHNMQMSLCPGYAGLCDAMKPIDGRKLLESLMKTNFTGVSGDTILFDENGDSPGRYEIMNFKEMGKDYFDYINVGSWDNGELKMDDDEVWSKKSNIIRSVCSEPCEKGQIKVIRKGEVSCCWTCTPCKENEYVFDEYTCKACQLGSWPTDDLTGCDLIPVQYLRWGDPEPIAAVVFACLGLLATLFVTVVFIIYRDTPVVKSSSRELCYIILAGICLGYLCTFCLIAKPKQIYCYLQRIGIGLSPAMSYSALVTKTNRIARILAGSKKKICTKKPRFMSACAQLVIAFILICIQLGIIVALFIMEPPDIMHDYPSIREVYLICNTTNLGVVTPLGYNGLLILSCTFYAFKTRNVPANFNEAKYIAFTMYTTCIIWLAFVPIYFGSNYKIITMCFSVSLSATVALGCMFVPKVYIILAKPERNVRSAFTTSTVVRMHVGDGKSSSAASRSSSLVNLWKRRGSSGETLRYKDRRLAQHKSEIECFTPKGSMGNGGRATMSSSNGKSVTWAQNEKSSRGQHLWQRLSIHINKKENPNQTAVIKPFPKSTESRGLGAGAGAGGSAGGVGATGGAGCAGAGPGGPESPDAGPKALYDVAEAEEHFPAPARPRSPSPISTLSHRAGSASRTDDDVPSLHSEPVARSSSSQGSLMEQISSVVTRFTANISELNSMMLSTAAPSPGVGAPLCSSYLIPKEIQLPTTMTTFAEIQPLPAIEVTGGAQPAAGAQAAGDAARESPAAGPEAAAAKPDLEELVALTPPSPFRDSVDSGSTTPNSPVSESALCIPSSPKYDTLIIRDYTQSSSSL

SMILES	%Glumin (human mGlu5 [1]; human mGlu5-HEK293A cells) [%]	pIC50 (human mGlu5 [1]; [11])	IC50 (human mGlu5 [1]; [12]) [µM]	also measured
O=C(Nc1ccc(F)cn1)c1cc(O[C@@H]2CCOC2)c2sccc2n1 [19aB]	2	7.22	0.061	rat CLhep [2]: 55.1 mL/min/kg; human f u,plasma [3]: 0.008
O=C(Nc1cccc(F)n1)c1cc(O[C@@H]2CCOC2)c2sccc2n1 [19aC]	6	5.98	1.07	IC50 (human mGlu5 [1]; in μM, read-out: hmGlu5 IC50): 1.1 µM
Cc1cccc(NC(=O)c2cc(O[C@@H]3CCOC3)c3sccc3n2)n1 [19aD]	2	7.66	0.022	rat CLhep [2]: 57.5 mL/min/kg; human f u,plasma [3]: 0.005
Cc1cccc(NC(=O)c2cc(O[C@@H]3CCOC3)c3sccc3n2)c1 [19aE]	2	6.08	0.845	–
Cc1nc(NC(=O)c2cc(O[C@@H]3CCOC3)c3sccc3n2)ccc1F [19aG]	66	< 5	> 10	–
CCc1csc(NC(=O)c2cc(O[C@@H]3CCOC3)c3sccc3n2)n1 [19aH]	6	5.62	2.56	–
O=C(Nc1nccs1)c1cc(O[C@@H]2CCOC2)c2sccc2n1 [19aK]	3	5.75	1.83	–
O=C(Nc1nc(CF)cs1)c1cc(O[C@@H]2CCOC2)c2sccc2n1 [19aL]	2	7.27	0.055	rat CLhep [2]: 41.8 mL/min/kg; human f u,plasma [3]: 0.016
O=C(Nc1nc(C(F)F)cs1)c1cc(O[C@@H]2CCOC2)c2sccc2n1 [19aM]	18	6.50	0.32	–
N#Cc1csc(NC(=O)c2cc(O[C@@H]3CCOC3)c3sccc3n2)n1 [19aN]	3	6.27	0.559	–
Cc1coc(NC(=O)c2cc(O[C@@H]3CCOC3)c3sccc3n2)n1 [19aP]	50	< 5	> 10	–
Cc1nsc(NC(=O)c2cc(O[C@@H]3CCOC3)c3sccc3n2)n1 [19aQ]	73	< 5	> 10	–
Cc1csc(NC(=O)c2cc(O[C@@H]3CCOC3)c3sc(C)cc3n2)n1 [19cA]	2	6.45	0.357	–
Cc1cc2nc(C(=O)Nc3ccc(F)cn3)cc(O[C@@H]3CCOC3)c2s1 [19cB]	–	–	–	IC50 (nM) (human mGlu5 [1]; [11]): inactive
Cc1csc(NC(=O)c2cc(O[C@@H]3CCOC3)c3ccn(C)c3n2)n1 [19dA]	2	7.04	0.093	rat CLhep [2]: 52.3 mL/min/kg; human f u,plasma [3]: 0.006
Cn1ccc2c(O[C@@H]3CCOC3)cc(C(=O)Nc3ccc(F)cn3)nc21 [19dB]	12	5.98	1.06	–
Cn1ccc2nc(C(=O)Nc3ccc(F)cn3)cc(O[C@@H]3CCOC3)c21 [19eB]	46	< 5	> 10	–
Cc1csc(NC(=O)c2cc(O[C@@H]3CCOC3)c3ccccc3n2)n1 [19fA]	6	6.74	0.192	–
O=C(Nc1ccc(F)cn1)c1cc(O[C@@H]2CCOC2)c2ccccc2n1 [19fB]	15	5.59	2.65	–

SMILES	%Glumin (human mGlu5 [1]; human mGlu5-HEK293A cells) [%]	pIC50 (human mGlu5 [1]; [11])	IC50 (human mGlu5 [1]; [12]) [µM]	also measured
Cc1csc(NC(=O)c2cc(OC3CC(C)(C)OC3(C)C)c3sccc3n2)n1 (stereo not shown) [22b]	–	–	–	IC50 (nM) (human mGlu5 [1]; [11]): inactive
Cc1csc(NC(=O)c2cc(OC3CCOCC3)c3sccc3n2)n1 [22d]	25	< 5	> 10	–
Cc1csc(NC(=O)c2cc(OC3COC3)c3sccc3n2)n1 [22e]	2	6.76	0.185	–
CO[C@@H](C)COc1cc(C(=O)Nc2nc(C)cs2)nc2ccsc12 [22g]	12	6.17	0.682	–
Cc1csc(NC(=O)c2cc(OC3CC(C#N)C3)c3sccc3n2)n1 (stereo not shown) [22i]	–	–	–	rat CLhep [2]: 48.2 mL/min/kg; human f u,plasma [3]: 0.005
Cc1csc(NC(=O)c2cc(OC3CSC3)c3sccc3n2)n1 [22j]	2	6.98	0.107	rat CLhep [2]: 68.4 mL/min/kg; human f u,plasma [3]: 0.001
Cc1csc(NC(=O)c2cc(O[C@@H]3CCOC3)cnn2)n1 [27aA]	–	–	–	IC50 (nM) (human mGlu5 [1]; [11]): inactive
O=C(Nc1ccc(F)cn1)c1cncc(O[C@@H]2CCOC2)c1 [27bB]	–	–	–	IC50 (nM) (human mGlu5 [1]; [11]): inactive
O=C(Nc1ccc(F)cn1)c1cc(O[C@@H]2CCOC2)cc(F)c1F [27cB]	3	5.88	1.57	IC50 (human mGlu5 [1]; in μM, read-out: hmGlu5 IC50): 1.6 µM
O=C(Nc1ccc(F)cn1)c1cc(O[C@@H]2CCOC2)ncn1 [27eB]	–	–	–	IC50 (nM) (human mGlu5 [1]; [11]): inactive
Cc1csc(NC(=O)c2cc(O[C@@H]3CCOC3)c3ccncc3n2)n1 [27gA]	2	5.69	2.05	IC50 (human mGlu5 [1]; in μM, read-out: hmGlu5 IC50): 2.1 µM
O=C(Nc1ccc(F)cn1)c1cc(O[C@@H]2CCOC2)c2ccncc2n1 [27gB]	3	5.76	1.78	–
N#Cc1cc(F)cc(-c2nc(-c3ccc(F)cn3)no2)c1 [AZD9272]	–	–	–	adverse effect in clinical trials [4]: psychosis-like symptoms
O=C(c1ccc(OC(F)F)c(C#Cc2ccccn2)c1)N1Cc2cccnc2C1 [GRN-529]	–	–	–	glutathione conjugation to the alkyne [5]: extensive glutathione conjugation; toxicology finding ([5]; nonhuman primates, 8-week regulatory toxicology study): biliary epithelial hyperplasia; also recorded: hepatotoxicity observed
Cc1csc(NC(=O)c2cc(F)cc(Oc3cncnc3)c2)n1 [VU0409106]	–	–	–	%F ([6]; in vivo): < 5%
Cc1cc(Oc2cncnc2)cc(C(=O)Nc2ccc(F)cn2)n1 [compound 10, N-(5-Fluoropyridin-2-yl)-6-methyl-4-(pyrimidin-5-yloxy)picolinamide]	–	–	–	toxicology finding [7]: pronounced anemia
Cc1cc(O[C@@H]2CCOC2)cc(C(=O)Nc2ccc(F)cn2)n1 [compound 11]	–	–	–	IC50 (human mGlu5 [8]): 0.022 µM; predicted hepatic clearance in rat (CLhep) [9]: 51 mL/min/kg; rat brain:plasma K p,uu [10]: 0.79; oral bioavailability (%F) [6]: 5.5%
O=C(NCc1ccc(F)cn1)c1cc(Oc2cccnc2)c2sccc2n1 [compound 13]	–	–	–	M1 PAM (M1): > 30 µM
CN1CC(=O)N=C1NC(=O)Nc1cccc(Cl)c1 [fenobam]	–	–	–	adverse effect in clinical trials [4]: psychosis-like symptoms
